According to paper doi:10.1101/2025.04.25.650653, “Hierarchical small molecule inhibition of MYST acetyltransferases” (bioRxiv, 2025):
Where “and” joins values, the source holds several entries; their conditions need not be identical. Identical values can stand only once.

Test system: histone modifications in MCF-7 cells
Assay: Histone modification analysis by bottom-up LC-MS/MS
Assay type: cell-based
Conditions: for Ratio, H2A1_12_17 unmod / Ratio, H2A3_12_17 K15me1: MCF-7; for Ratio, H3_3_8 K4me1 / Ratio, H3_3_8 unmod / Ratio, H3_54_63 unmod / Ratio, H3_41_49 unmod: Replicates 1-3
Text: In this approach. […] Histones are then extracted from cell pellets and chemically derivatized with propionic anhydride, digested with trypsin, subjected to a second round of propionylation, and analyzed by LC-MS/MS. Measuring the relative intensity of modified versus unmodified forms of individual histone peptides enables simultaneous monitoring of multiple potential biomarkers of MYST inhibition. To minimize false positives, we focused on abundant and reproducible modifications (average stoichiometry of greater than 1% across triplicate samples, standard deviation less than or equal to the average measurement). To account for potential histone modification crosstalk, changes in both acetylated and methylated peptides were evaluated. 38 modified peptides passed this reproducible detection threshold including several established KAT biomarkers[41] including H3K9Ac (KAT2A/B), H3K18Ac (KAT3A/B), H3K14Ac (KAT7), H3K23Ac (KAT6A/B), H4K16Ac (KAT8), and H2A.ZK4/K7Ac (KAT5; Fig. 4B).
Histone modification analysis
MCF-7 cells were cultured at 37 °C under 5% CO2 in EMEM (Quality Biological, 112-016-101) with 0.01 mg/mL human recombinant insulin (Sigma Aldrich, 91077C), 2 mM L-glutamine (Quality Biological, 118- […]
human recombinant insulin.
1119, WM-3835). Following 24 h inhibitor treatment, cells were washed with ice-cold 1× PBS and scraped in 150 µL of Nuclear Isolation Buffer (NIB) containing 0.1% NP-40 for histone extraction using a modified protocol from the Garcia laboratory. 9 Briefly, cell suspensions were incubated on ice for 5 minutes, and […]
nuclei were pelleted by centrifugation (600 rcf, 4°C, 5 min). Pelleted nuclei were washed twice with 150 μL of detergent-free NIB buffer, followed by centrifugation (600 rcf, 4°C, 5 min) to remove all detergent.
Nuclei were then resuspended in 400 μL of 0.4 N H₂SO₄ and rotated at 4°C overnight for acid extraction of histones. The following day, samples were centrifuged (11,000 rcf, 4°C, 10 min) and the histone-containing supernatant was transferred to a fresh tube. Trichloroacetic acid (100% TCA) was added to achieve a final concentration of 20% (v/v), tubes were inverted once to mix, and histone precipitation was performed on ice for at least 3 hours or overnight at 4°C. Precipitated histones were collected by centrifugation (11,000 rcf, 4°C, 10 min) and the supernatant carefully removed, leaving a visible film of histones on the tube wall or bottom. Histone pellets were subjected to sequential washes with 1 mL of ice-cold acidified acetone (0.1% 12 N HCl) followed by 1 mL of 100% ice-cold acetone, with centrifugation (11,000 rcf, 4°C, 5 min) after each wash. Samples were air-dried at room temperature, resuspended in 40 µL of ddH₂O, and protein […]
analysis, 1-2 µg of purified histones were loaded per lane and processed according to the general immunoblotting protocol described in General Materials and Methods.
Analysis of histone modifications by LC-MS/MS
Preparation of histone samples for LC-MS/MS was performed analogously to the procedure for immunoblotting above, with the following modifications. MCF7 cells (4.2 × 106) were seeded in 15 cm dishes and treated with PF-9363 or vehicle. Experiments were performed in triplicate. Following treatment and PBS washing, cells were scraped and collected in 15 mL falcon tubes, pelleted (500 rcf, 4°C, 5 min), resuspended in 1 mL cold PBS, transferred to microcentrifuge tubes, and pelleted again before flash-freezing in liquid nitrogen for storage at -80°C. For extraction, cell pellets (~100 μL) were resuspended in NIB buffer at a 1:10 ratio, and cells were lysed with NIB buffer containing 0.2% NP-40 for 8 minutes on ice. Nuclei were pelleted at 1,000 rcf for 8 minutes and washed three times with 500 μL detergent-free NIB buffer. Histones were extracted using 800 μL of 0.2 M H₂SO₄, and after centrifugation (3,400 rcf, 4°C, 10

[1] = TKQTAR(H3_3_8), PF-9363 0.1 v 30
[2] = TKQTAR(H3_3_8), PF-9363 (0.1 mM)
[3] = TKQTAR(H3_3_8), PF-9363 (30 mM)

COc1cccc(OC)c1S(=O)(=O)Nc1noc2cc(Cn3cccn3)cc(OC)c12 [PF-9363]
Ratio, H2A1_12_17 unmod (Replicate 2, PF-9363 30): 0.4993 | Ratio, H2A3_12_17 K15me1 (Replicate 2, PF-9363 30): 0.4897 | Ratio, H2A1_12_17 unmod (Replicate 3, PF-9363 0.1): 0.4868 | Ratio, H2A3_12_17 K15me1 (Replicate 3, PF-9363 0.1): 0.466 | Ratio, H2A1_12_17 unmod (Replicate 3, PF-9363 1): 0.5044 | Ratio, H2A3_12_17 K15me1 (Replicate 3, PF-9363 1): 0.4869 | Ratio, H2A1_12_17 unmod (Replicate 3, PF-9363 10): 0.4939 | Ratio, H2A3_12_17 K15me1 (Replicate 3, PF-9363 10): 0.4755 | Ratio, H2A1_12_17 unmod (Replicate 3, PF-9363 30): 0.5006 | Ratio, H2A3_12_17 K15me1 (Replicate 3, PF-9363 30): 0.4892 | Fold-change 0.1 v 30, H3_3_8 K4me1 [1]: 1.02 | Fold-change 0.1 v 30, H3_3_8 unmod [1]: 1.00 | Average ratio, H3_3_8 K4me1 [2]: 0.0973 | Average ratio, H3_3_8 unmod [2]: 0.8963 | Average ratio, H3_3_8 K4me1 [3]: 0.0953 | Average ratio, H3_3_8 unmod [3]: 0.8973 | Ratio, H3_3_8 K4me1 (TKQTAR(H3_3_8), dose 0.1): 0.09461 and 0.103 and 0.09428 | Ratio, H3_3_8 unmod (TKQTAR(H3_3_8), dose 0.1): 0.9002 and 0.8874 and 0.9011 | Ratio, H3_3_8 K4me1 (TKQTAR(H3_3_8), dose 1): 0.09313 and 0.09156 and 0.09495 | Ratio, H3_3_8 unmod (TKQTAR(H3_3_8), dose 1): 0.903 and 0.9014 and 0.9006 | Ratio, H3_3_8 K4me1 (TKQTAR(H3_3_8), dose 10): 0.1087 and 0.09351 and 0.1018 | Ratio, H3_3_8 unmod (TKQTAR(H3_3_8), dose 10): 0.8856 and 0.9033 and 0.8936 | Ratio, H3_3_8 K4me1 (TKQTAR(H3_3_8), dose 30): 0.09818 and 0.09712 and 0.09049 | Ratio, H3_3_8 unmod (TKQTAR(H3_3_8), dose 30): 0.8954 and 0.8931 and 0.9034 | Fold-change 0.1 v 30, H3_54_63 unmod (YQKSTELLIR(H3_54_63), PF-9363 0.1 v 30): 0.99 | Average ratio, H3_54_63 unmod (YQKSTELLIR(H3_54_63), PF-9363 (0.1 mM)): 0.9888 | Average ratio, H3_54_63 unmod (YQKSTELLIR(H3_54_63), PF-9363 (30 mM)): 0.9942 | Ratio, H3_54_63 unmod (YQKSTELLIR(H3_54_63), dose 0.1): 0.9974 and 0.9808 and 0.9881 | Ratio, H3_54_63 unmod (YQKSTELLIR(H3_54_63), dose 1): 0.9878 and 0.9887 and 0.9945 | Ratio, H3_54_63 unmod (YQKSTELLIR(H3_54_63), dose 10): 0.9895 and 0 and 0.9781 | Ratio, H3_54_63 unmod (YQKSTELLIR(H3_54_63), dose 30): 0.9962 and 0.9919 and 0.9944 | Fold-change 0.1 v 30, H3_41_49 unmod (YRPGTVALR(H3_41_49), PF-9363 0.1 v 30): 1.00 | Average ratio, H3_41_49 unmod (YRPGTVALR(H3_41_49), PF-9363 (0.1 mM)): 0.9999 | Average ratio, H3_41_49 unmod (YRPGTVALR(H3_41_49), PF-9363 (30 mM)): 0.9999 | Ratio, H3_41_49 unmod (YRPGTVALR(H3_41_49), dose 0.1): 0.9999 and 1 and 0.9998 | Ratio, H3_41_49 unmod (YRPGTVALR(H3_41_49), dose 1): 0.9993 and 1 and 0.9999 | Ratio, H3_41_49 unmod (YRPGTVALR(H3_41_49), dose 10): 0.9997 and 1 and 0.9999 | Ratio, H3_41_49 unmod (YRPGTVALR(H3_41_49), dose 30): 1 (2×) and 0.9996 | Fold-change 0.1 v 30, H2A1_1_11 K5ac (average ratio 0.1 v 30): 0.99 | Fold-change 0.1 v 30, H2A1_4_11 K5ac (average ratio 0.1 v 30): 0.88 | Fold-change 0.1 v 30, H2A1_4_11 K9ac (average ratio 0.1 v 30): 1.17 | Fold-change 0.1 v 30, H2A1_4_11 unmod (average ratio 0.1 v 30): 0.99 | Fold-change 0.1 v 30, H2A1_36_42 unmod (average ratio 0.1 v 30): 1.00 | Fold-change 0.1 v 30, H2A3_36_42 unmod (average ratio 0.1 v 30): 1.00 | Fold-change 0.1 v 30, H2AJ_4_11 K5acK9ac (average ratio 0.1 v 30): 0.98 | Fold-change 0.1 v 30, H2AV_1_19 K4ac (average ratio 0.1 v 30): 0.98 | Fold-change 0.1 v 30, H2AV_1_19 unmod (average ratio 0.1 v 30): 1.14 | Fold-change 0.1 v 30, H2AX_36_42 unmod (average ratio 0.1 v 30): 1.00 | Fold-change 0.1 v 30, H2AZ_1_19 K11ac (average ratio 0.1 v 30): 0.64 | Fold-change 0.1 v 30, H2AZ_1_19 unmod (average ratio 0.1 v 30): 0.92 | Fold-change 0.1 v 30, H3_73_83 K79me1 (average ratio 0.1 v 30): 1.08 | Fold-change 0.1 v 30, H3_73_83 K79me2 (average ratio 0.1 v 30): 1.32 | Fold-change 0.1 v 30, H3_73_83 unmod (average ratio 0.1 v 30): 0.97 | Fold-change 0.1 v 30, H4_4_17 K12acK16ac (average ratio 0.1 v 30): 0.05 | Fold-change 0.1 v 30, H4_4_17 unmod (average ratio 0.1 v 30): 1.46 | Fold-change 0.1 v 30, H4_20_23 K20me1 (average ratio 0.1 v 30): 1.30 | Fold-change 0.1 v 30, H4_20_23 unmod (average ratio 0.1 v 30): 1.38
